Here are results for eleven compounds from ChEMBL document CHEMBL1201862, “PubChem BioAssay data set” (2004).

In test [1] the target is T1, Sentrin-specific protease 8 (Homo sapiens, UniProt Q96LD8).
T1 sequence (Q96LD8 whole entry): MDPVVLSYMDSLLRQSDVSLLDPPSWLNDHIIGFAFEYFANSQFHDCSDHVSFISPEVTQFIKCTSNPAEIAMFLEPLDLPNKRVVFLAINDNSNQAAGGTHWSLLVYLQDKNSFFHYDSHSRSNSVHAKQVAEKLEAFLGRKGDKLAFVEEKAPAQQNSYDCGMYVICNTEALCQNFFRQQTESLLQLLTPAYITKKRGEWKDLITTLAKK
Kind of test: SENP8 protease inhibitors, SAR follow-up, biochemical, luminescence (AID 504501). It counts as functional.

Test [2] deals with T2, Sentrin-specific protease 7 (Homo sapiens, UniProt Q9BQF6).
T2 sequence (Q9BQF6 whole entry): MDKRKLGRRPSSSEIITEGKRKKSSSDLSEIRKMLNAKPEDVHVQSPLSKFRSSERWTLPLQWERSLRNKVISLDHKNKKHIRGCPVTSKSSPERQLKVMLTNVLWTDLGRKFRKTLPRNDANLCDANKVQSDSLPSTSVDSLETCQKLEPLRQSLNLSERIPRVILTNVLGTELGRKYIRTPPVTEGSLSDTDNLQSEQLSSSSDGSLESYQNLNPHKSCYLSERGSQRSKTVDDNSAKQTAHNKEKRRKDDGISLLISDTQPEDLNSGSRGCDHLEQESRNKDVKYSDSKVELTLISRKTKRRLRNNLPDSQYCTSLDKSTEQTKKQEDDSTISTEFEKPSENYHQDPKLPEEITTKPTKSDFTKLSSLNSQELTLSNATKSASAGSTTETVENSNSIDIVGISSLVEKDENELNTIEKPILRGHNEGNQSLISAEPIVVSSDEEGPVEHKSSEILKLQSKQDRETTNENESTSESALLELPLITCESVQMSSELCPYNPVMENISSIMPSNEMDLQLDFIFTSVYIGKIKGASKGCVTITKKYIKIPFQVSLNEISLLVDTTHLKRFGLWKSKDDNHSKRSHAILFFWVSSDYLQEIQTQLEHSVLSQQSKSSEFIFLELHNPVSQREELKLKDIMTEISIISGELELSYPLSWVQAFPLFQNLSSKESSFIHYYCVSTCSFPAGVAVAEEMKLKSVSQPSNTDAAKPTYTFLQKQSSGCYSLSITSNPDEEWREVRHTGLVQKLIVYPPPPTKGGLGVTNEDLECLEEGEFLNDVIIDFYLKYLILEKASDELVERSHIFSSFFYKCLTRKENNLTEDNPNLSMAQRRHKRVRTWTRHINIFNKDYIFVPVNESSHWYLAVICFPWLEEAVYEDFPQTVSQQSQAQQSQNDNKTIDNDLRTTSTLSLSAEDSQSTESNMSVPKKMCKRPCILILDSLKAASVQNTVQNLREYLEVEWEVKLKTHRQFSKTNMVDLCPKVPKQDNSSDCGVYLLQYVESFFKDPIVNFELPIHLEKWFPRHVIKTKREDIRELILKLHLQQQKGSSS
Kind of test: SENP7 protease inhibitors, SAR follow-up, biochemical, luminescence (AID 504497). The format is functional.

The next test concerns the target T3, Caspase-3 (Homo sapiens, UniProt P42574).
T3 sequence (P42574 whole entry): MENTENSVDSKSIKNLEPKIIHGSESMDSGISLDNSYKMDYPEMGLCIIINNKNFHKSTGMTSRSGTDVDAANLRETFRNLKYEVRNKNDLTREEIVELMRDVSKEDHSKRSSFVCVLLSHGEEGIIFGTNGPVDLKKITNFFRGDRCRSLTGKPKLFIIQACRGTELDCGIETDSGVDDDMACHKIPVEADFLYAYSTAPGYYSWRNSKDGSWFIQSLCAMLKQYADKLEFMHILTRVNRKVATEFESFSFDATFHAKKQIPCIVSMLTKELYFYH
Briefly: SAR Analysis of small molecule inhibitors of Sentrin-specific proteases (SENPs) using a Caspase-3 Selectivity assay. [Related pubchem assays (depositor defined):AID2540, AID2599, AID434973, AID489001]. The format is functional.

Test [3] has as its target T4, Sentrin-specific protease 6 (Homo sapiens, UniProt Q9GZR1).
T4 sequence (Q9GZR1 whole entry): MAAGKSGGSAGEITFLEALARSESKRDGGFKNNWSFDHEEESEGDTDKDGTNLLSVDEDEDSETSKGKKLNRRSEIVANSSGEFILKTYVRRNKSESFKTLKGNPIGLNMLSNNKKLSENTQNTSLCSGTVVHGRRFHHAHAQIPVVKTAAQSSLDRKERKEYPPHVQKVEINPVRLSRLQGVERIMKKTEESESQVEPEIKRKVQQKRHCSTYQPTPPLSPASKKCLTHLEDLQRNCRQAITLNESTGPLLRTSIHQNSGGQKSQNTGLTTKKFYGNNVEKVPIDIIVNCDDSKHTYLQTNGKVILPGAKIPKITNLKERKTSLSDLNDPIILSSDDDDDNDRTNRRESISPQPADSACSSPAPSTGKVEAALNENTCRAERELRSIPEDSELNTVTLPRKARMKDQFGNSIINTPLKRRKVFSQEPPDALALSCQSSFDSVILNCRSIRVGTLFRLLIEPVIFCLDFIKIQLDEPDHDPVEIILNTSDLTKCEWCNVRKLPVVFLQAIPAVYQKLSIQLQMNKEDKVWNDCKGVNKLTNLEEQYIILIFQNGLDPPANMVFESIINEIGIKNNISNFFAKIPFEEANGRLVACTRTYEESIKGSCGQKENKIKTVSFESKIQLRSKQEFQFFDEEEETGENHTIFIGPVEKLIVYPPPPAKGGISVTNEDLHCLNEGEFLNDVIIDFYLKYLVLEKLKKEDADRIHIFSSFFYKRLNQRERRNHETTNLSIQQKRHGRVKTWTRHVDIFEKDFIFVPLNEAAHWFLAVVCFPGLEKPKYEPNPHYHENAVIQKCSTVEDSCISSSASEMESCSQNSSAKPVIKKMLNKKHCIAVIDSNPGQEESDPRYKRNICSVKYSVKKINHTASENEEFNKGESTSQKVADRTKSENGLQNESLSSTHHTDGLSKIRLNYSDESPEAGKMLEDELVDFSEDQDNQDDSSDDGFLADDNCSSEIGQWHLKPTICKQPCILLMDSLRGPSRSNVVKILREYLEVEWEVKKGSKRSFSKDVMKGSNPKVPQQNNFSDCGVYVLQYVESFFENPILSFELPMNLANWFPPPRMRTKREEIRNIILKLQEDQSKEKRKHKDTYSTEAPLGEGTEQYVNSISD
Kind of test: SAR Analysis of small molecule inhibitors of Sentrin-specific protease 6 (SENP6) using a Luminescent assay. [Related pubchem assays (depositor defined):AID2582, AID2599]. It counts as functional.

In test [4] the target is Induced myeloid leukemia cell differentiation protein Mcl-1 (Homo sapiens, UniProt Q07820). The format is functional.
Induced myeloid leukemia cell differentiation protein Mcl-1, sequence (Q07820 whole entry, the tested form may be a part): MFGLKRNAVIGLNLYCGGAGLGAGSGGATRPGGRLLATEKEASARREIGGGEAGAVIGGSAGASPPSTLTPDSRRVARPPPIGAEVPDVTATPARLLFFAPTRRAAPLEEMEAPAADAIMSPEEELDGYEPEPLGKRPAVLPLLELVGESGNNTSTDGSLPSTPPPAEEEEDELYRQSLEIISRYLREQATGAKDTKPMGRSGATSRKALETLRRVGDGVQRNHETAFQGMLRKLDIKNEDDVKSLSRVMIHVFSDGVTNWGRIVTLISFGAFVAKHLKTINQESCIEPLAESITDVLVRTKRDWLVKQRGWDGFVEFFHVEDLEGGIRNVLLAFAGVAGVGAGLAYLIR
Test [5] concerns the target Hepatocyte nuclear factor 4-alpha (Homo sapiens, UniProt P41235). The format is functional, cell-based.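 Also: biochemical luminescence-based dose-response counterscreen measuring inhibition of HNF4 dimerization, run alongside a screen for blockers of ABHD5–perilipin-5 interaction; split luciferase complementation of HNF4 fusion proteins in cell lysate measuring dimerization.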
Test [6] addresses Adenosylmethionine-8-amino-7-oxononanoate aminotransferase (Mycobacterium tuberculosis, UniProt P9WQ81). Kind of test: Mycobacterium tuberculosis BioA enzyme inhibitor Measured in Biochemical System Using Plate Reader - 2163-02_Inhibitor_Dose_CherryPick_Activity. It counts as functional, Mycobacterium tuberculosis UT205.
Another test addresses Protein Wnt-3a (Mus musculus, UniProt P27467). Kind of test: Wnt3a-driven reporter signaling inhibition, dose response, selectivity assay for Gli-SUFU antagonist project, Wnt-LIGHT cells, luminescence (AID 651570).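 Also: Wnt-LIGHT reporter cells stimulated with conditioned medium from Wnt3a-producing cells.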 Particulars: read-out: IC50_Mean. The format is functional.
Test [7] deals with T5, Rac GTPase-activating protein 1 (Homo sapiens, UniProt Q9H0H5).
T5 sequence (Q9H0H5 whole entry): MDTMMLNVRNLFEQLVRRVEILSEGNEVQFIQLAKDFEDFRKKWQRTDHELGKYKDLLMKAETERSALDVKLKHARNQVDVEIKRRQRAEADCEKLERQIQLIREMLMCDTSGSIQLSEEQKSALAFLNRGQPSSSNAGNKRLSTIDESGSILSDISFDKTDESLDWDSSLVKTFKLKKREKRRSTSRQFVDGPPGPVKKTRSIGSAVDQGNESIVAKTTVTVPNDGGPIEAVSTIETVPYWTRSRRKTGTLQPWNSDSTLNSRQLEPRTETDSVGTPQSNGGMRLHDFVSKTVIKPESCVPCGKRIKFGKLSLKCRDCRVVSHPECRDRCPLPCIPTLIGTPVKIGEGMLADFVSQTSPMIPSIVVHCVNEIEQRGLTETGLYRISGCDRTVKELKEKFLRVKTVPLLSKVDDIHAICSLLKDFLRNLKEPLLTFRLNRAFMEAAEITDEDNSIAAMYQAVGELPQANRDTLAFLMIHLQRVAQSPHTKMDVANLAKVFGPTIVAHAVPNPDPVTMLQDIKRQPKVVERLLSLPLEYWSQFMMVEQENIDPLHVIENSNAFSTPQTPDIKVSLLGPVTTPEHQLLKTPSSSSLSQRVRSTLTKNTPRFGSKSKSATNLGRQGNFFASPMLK
Briefly: MgcRacGAP GTPase-activating activity inhibitors, confirmation, biochemical, ADP Hunter fluorescence, primary and confirmatory (AID 624330). It counts as functional.

Test [8] in a line: ARNT/TACC3 interaction disruptors, potency, confirmation, biochemical, AlphaScreen, cherry-picked samples (AID 651703).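 Also: His-tagged ARNT PAS-B domain paired with GST-TACC3 E629A dimer coactivator fragment; potency of inhibitors that break up the complex and lower AlphaScreen signal.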 It counts as functional, Homo sapiens.
The target in test [9] is Mitochondrial peptide methionine sulfoxide reductase (Bos taurus, UniProt P54149). Briefly: Absorbance-based biochemical high throughput dose response assay for activators of Methionine sulfoxide reductase A (MsrA). The format is functional.
Mitochondrial peptide methionine sulfoxide reductase, sequence (P54149 whole entry): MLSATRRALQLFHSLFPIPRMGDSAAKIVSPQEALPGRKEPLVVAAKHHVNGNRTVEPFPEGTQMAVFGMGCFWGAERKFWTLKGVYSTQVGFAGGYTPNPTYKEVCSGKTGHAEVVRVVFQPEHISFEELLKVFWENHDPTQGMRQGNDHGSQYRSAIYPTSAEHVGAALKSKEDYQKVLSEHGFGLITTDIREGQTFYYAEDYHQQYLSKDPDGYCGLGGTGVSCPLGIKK

Active and inactive are the calls of the source.

As a reminder, the AC50 is the concentration giving half of the maximal activity seen. The term EC50 denotes the concentration giving half of the maximal effect.

Adenosylmethionine-8-amino-7-oxononanoate aminotransferase, sequence (P9WQ81 whole entry): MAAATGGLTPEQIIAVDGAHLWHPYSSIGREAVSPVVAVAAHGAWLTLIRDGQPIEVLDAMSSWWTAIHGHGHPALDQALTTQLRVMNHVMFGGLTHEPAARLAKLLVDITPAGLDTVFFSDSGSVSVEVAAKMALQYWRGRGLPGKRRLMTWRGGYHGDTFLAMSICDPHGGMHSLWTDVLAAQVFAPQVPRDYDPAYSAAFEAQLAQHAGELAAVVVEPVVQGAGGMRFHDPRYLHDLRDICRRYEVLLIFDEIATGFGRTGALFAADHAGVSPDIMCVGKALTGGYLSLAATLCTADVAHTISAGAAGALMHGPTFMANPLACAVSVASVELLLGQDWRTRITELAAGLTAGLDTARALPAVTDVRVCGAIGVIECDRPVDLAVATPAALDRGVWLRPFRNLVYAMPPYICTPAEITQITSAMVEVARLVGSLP
Protein Wnt-3a, sequence (P27467 whole entry): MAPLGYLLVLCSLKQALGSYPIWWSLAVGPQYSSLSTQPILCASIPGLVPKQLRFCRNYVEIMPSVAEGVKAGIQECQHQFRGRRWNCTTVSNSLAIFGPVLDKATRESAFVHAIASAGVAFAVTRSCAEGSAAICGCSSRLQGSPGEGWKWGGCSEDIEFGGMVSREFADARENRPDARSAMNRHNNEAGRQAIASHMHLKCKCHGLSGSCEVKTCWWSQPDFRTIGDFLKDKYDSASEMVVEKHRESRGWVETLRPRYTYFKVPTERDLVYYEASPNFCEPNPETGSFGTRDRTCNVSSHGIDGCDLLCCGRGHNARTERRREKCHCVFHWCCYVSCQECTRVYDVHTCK
Hepatocyte nuclear factor 4-alpha, sequence (P41235 whole entry, the tested form may be a part): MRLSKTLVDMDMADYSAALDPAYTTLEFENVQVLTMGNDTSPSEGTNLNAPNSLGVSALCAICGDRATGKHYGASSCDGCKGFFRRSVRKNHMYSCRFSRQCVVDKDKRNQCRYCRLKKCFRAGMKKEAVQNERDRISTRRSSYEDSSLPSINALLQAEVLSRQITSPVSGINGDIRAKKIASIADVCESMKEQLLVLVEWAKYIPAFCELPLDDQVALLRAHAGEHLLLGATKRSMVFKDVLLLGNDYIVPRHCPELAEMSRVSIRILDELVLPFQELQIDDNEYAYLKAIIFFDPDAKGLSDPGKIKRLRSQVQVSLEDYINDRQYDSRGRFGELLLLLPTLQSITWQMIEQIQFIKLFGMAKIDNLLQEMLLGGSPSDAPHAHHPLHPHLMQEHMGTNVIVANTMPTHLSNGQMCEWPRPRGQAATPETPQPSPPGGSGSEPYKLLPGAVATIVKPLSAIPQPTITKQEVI

`Cc1cc(C(F)F)nn1CC(=O)Nc1sc2c(c1C#N)CCC2`: the IC50 (in test [1]; in test [2]; at Caspase-3; in test [3]) was > 99 µM (inactive) in each case.

For `CS(=O)(=O)c1ccc(C(=O)NCCN2C(=O)S/C(=C\c3cccnc3)C2=O)cc1[N+](=O)[O-]`, the values for the IC50 in test [4] and in test [5] were 2.17 µM (active) and 5.89 µM (active), respectively.

Regarding `CCCCCNC(=O)C(c1cccc2ccccc12)n1c(=O)c(-c2ccco2)nc2ccccc21` (centres undefined), the IC50 in [5] is 2.83 µM (active).

For the compound `CC(C)(C)c1cc(C(=O)Nc2cccnc2)cc(C(=O)Nc2cccnc2)c1`, the AC50 in test [6] was 1.28 µM (active).

On to `Cc1nc2ncccn2c1-c1csc(Nc2ccc(O)cc2)n1`, for which the figures for the IC50 (on Protein Wnt-3a; in [7]) were 48.9 µM (inactive) and 14.3 µM (active), respectively.

For `CC(=O)c1c(C)[nH]c(C(=O)OCC(=O)Nc2cccc(S(=O)(=O)N3CCCC3)c2)c1C`, at Protein Wnt-3a, the IC50 is 5.02 µM (active).

With `CC(=O)N1CN(Cc2ccccn2)Cc2c1sc1c2CCCC1`, the AC50 in test [8] was 87.9 µM (active).

On to `CC1(C(=O)Nc2ccccc2)CCN1C(=O)Cc1ccc(-c2ccccc2)cc1` (centres undefined), for which the EC50 in test [9] is > 104 µM (inactive).

In the case of `CCCCc1ccc2nc(NC(=O)C3CCCCC3)sc2c1`, the IC50 (in test [1]; in test [2]; at Caspase-3; in test [3]) was > 99 µM (inactive) throughout.

For `COc1cccc(NC(=O)CCC2CCN(C(=O)c3ccc(C(C)=O)s3)CC2)c1`, the half-maximal activity concentration (AC50) in [6] was 0.508 µM (active).

Take `O=C(NCc1ccccn1)c1c(-c2ccccc2)sc2ccccc12`: the AC50 in [8] is 121 µM (active).
